Data reported in article PMC5485989, “Role of Free Radicals and Biotransformation in Trichloronitrobenzene-Induced Nephrotoxicity In Vitro” (International Journal of Molecular Sciences, 2017).
Several values for one entry are separate records, joined by “and”; a condition that tells them apart may be missing. Equal entries are not always repeated. Marks after values point to notes of the source that are not given here.

How the values were obtained:
[1] = test system: isolated renal cortical cells (IRCC); assay: Effect of antioxidant or biotransformation inhibitor pretreatment on TCNB cytotoxicity, LDH release in IRCC; conditions: for Effect of pretreatment on 3,4,5-TCNB cytotoxicity: 0.5 mM 3,4,5-TCNB, 30 min exposure; for Effect of pretreatment on 3,4,5-TCNB cytotoxicity / Effect of pretreatment on 2,4,6-TCNB cytotoxicity / Effect of pretreatment on 2,3,4-TCNB cytotoxicity: IRCC; for Effect of pretreatment on 2,4,6-TCNB cytotoxicity: 1.0 mM 2,4,6-TCNB, 90 min exposure; for % of lactate dehydrogenase release, PreTx: pretreatment compound alone, no TCNB; for Effect of pretreatment on 2,3,4-TCNB cytotoxicity: 1.0 mM 2,3,4-TCNB, 60 min exposure
Description: Untreated rats were anesthetized with pentobarbital (75 mg/kg, i.p.) and isolated renal cortical cells (IRCC) were obtained by using the collagenase perfusion method. Initial cell viability was determined by measuring trypan blue (2% w/v) exclusion and lactate dehydrogenase (LDH) release. […] IRCC were then exposed to various concentrations of a TCNB (0, 0.5, or 1.0 mM) for 15, 30, 60, 90, or 120 min. Following the incubation period, flasks were removed and placed on ice. Samples (0.5 mL) were taken for LDH release assays. Briefly, the samples were centrifuged (3000× g, 3 min), the was supernatant decanted and saved, and the pellet was disrupted with 1 mL of 10% Triton X-100 solution to release cellular LDH activity. LDH activity was then determined in each fraction (supernatant and pellet) as previously described using a kinetic assay based on the amount of NADH produced from NAD [57]. The LDH released was expressed as % of total (supernatant plus pellet).
Concentrations used in these experiments were 0.5 mM (3,4,5-TCNB) or 1.0 mM (2,3,4-, 2,4,5- and 2,4,6-TCNB). Incubation times with a TCNB added were 30 min (3,4,5-TCNB), 60 min (2,3,4-TCNB), or 90 min (2,4,5- and 2,4,6-TCNB). The pretreatment times and concentrations for all of the pretreatments are shown below in Table 5.

[2] = test system: renal cortical slices; conditions: 120 min incubations; cited from earlier work
[3] = test system: isolated renal cortical cells (IRCC); assay: Time and concentration cytotoxicity study, LDH release in IRCC; assay type: cell-based, male Fischer 344 rats; conditions: 0.5 or 1.0 mM, 15-120 min, significant difference from DMSO control, p < 0.05
Description: To determine the comparative nephrotoxic potential of the four TCNBs in IRCC, a time and concentration response study was performed starting at 15 min and 0.5 or 1.0 mM and adjusting the times tested based on the results (Figure 2).

[4] = Table 1 experiments, 60 min incubation, mean ± S.E., n = 4
[5] = Table 2 experiments, 90 min incubation, mean ± S.E., n = 4
[6] = Table 3 experiments, 90 min incubation, mean ± S.E., n = 4
[7] = pretreatment compound followed by 1.0 mM 2,3,4-TCNB, 60 min, mean ± S.E., n = 4
[8] = pretreatment compound followed by 1.0 mM 2,4,5-TCNB, 90 min, mean ± S.E., n = 4
[9] = pretreatment compound followed by 1.0 mM 2,4,6-TCNB, 90 min, mean ± S.E., n = 4

SMILES	Effect of pretreatment on 3,4,5-TCNB cytotoxicity [1]	Effect of pretreatment on 2,4,6-TCNB cytotoxicity [1]	% of lactate dehydrogenase release, PreTx [1, 4]	% of lactate dehydrogenase release, PreTx [1, 5]	% of lactate dehydrogenase release, PreTx [1, 6]	% of lactate dehydrogenase release, PreTx + TCNB [1, 7]	% of lactate dehydrogenase release, PreTx + TCNB [1, 8]	% of lactate dehydrogenase release, PreTx + TCNB [1, 9]	Effect of pretreatment on 2,3,4-TCNB cytotoxicity [1]	Lowest concentration inducing in vitro nephrotoxicity (increased LDH release and decreased pyruvate-stimulated gluconeogenesis) [2] [mM]	% of lactate dehydrogenase release, 2,3,4-TCNB ([1]; 1.0 mM 2,3,4-TCNB alone, 60 min, one value per pretreatment experiment, mean ± S.E., n = 4)	Cytotoxicity (LDH release), time and concentration response [3]
CC(C)(C(=O)c1cccnc1)c1cccnc1 [Metyrapone]	reduced	reduced	12 ± 1%	16 ± 1 ^c %	15 ± 1%	17 ± 1 ^c %	28 ± 2 ^c %	27 ± 2 ^c %				
O=C(O)CC(S)C(=O)O (stereo not drawn) [Mercaptosuccinate]	reduced		10 ± 1%	17 ± 1 ^c %	16 ± 1%	10 ± 1 ^d %	24 ± 1 ^c %	31 ± 1 ^c %	reduced			
CCN(CC)C(=S)S [diethyldithiocarbamate, Diethyldithiocarbamate]	at least some attenuation											
Cn1cc[nH]c1=S [Methimazole]	reduced	reduced	9 ± 1%	14 ± 2%	17 ± 1%	11 ± 1 ^d %	23 ± 2 ^c %	31 ± 2 ^c %	reduced			
COc1ccc2c(c1)c(CC(=O)O)c(C)n2C(=O)c1ccc(Cl)cc1 [Indomethacin]	reduced	reduced	13 ± 1%	16 ± 2%	16 ± 1 ^c %	16 ± 2 ^c,d %	21 ± 2 ^c %	21 ± 1 ^c,d %	reduced			
O=[N+]([O-])c1ccc(Cl)c(Cl)c1Cl [2,3,4-TCNB, 2,3,4-trichloronitrobenzene]										0.5	28 ± 2 ^c % and 21 ± 1 ^c % and 22 ± 1 ^c % and 18 ± 1 ^c % and 20 ± 2 ^c % and 23 ± 2 ^c % and 20 ± 1 ^c % and 19 ± 1 ^c %	exhibited cytotoxicity starting after 15 min (1.0 mM) and 60 min exposure (0.5 and 1.0 mM), but no cytotoxicity was observed at 15 min
O=[N+]([O-])c1cc(Cl)c(Cl)cc1Cl [2,4,5-TCNB]												induced cytotoxicity at 90 min (0.5 mM) and 120 min (0.5 and 1.0 mM), but not at 60 min with either concentration
CCCCCCCCN [n-Octylamine, N-Octylamine]	reduced		16 ± 1 ^c %	11 ± 2%	11 ± 1%	19 ± 1 ^c,d %	32 ± 2 ^c %	29 ± 3 ^c %	reduced			
NNC(=O)c1ccncc1 [Isoniazid]	at least some attenuation		11 ± 1%	10 ± 1%		19 ± 1 ^c,d %	34 ± 1 ^c,d %	28 ± 2 ^c %	reduced			
